Data set [1] is described as follows: Cytotoxicity against human PC-3 cells assessed as inhibition of cell growth. It is filed as toxicity, cell-based.
Data set [2] concerns Staphylococcus aureus. Description: Antibacterial activity against methicillin-resistant Staphylococcus aureus. The format is functional.
The nature of data set [3]: Cytotoxicity against human HeLa cells assessed as inhibition of cell growth. It is filed as toxicity, cell-based.
Data set [4] in a line: Cytotoxicity against human A549 cells assessed as inhibition of cell growth. It is filed as toxicity, cell-based.
The nature of data set [5]: Inhibition of methicillin-resistant Staphylococcus aureus pyruvate kinase.
In data set [6] the test system is Staphylococcus aureus. Description: Antibacterial activity methicillin-resistant Staphylococcus aureus ST-1745 assessed as inhibition of bacterial growth incubated for 16 to 24 hrs by broth microdilution assay. The format is functional. The following applies: time 16-24 hrs.
Data set [7] deals with Staphylococcus aureus. The data set can be described thus: Antibacterial activity methicillin-resistant Staphylococcus aureus B-10732 assessed as inhibition of bacterial growth incubated for 16 to 24 hrs by broth microdilution assay. The format is functional. The following applies: time 16-24 hrs. A general note: In broth dilution the organism is exposed to a series of concentrations in liquid medium.

Data set [8] deals with Staphylococcus aureus. Description: Antibacterial activity methicillin-resistant Staphylococcus aureus ST-5457 assessed as inhibition of bacterial growth incubated for 16 to 24 hrs by broth microdilution assay. The format is functional. To be noted: time 16-24 hrs.
Data set [9] deals with Staphylococcus aureus. The data set can be described thus: Antibacterial activity methicillin-resistant Staphylococcus aureus P-6642 assessed as inhibition of bacterial growth incubated for 16 to 24 hrs by broth microdilution assay. To be noted: time 16-24 hrs. It is filed as functional.
Data set [10] relates to Staphylococcus aureus. Description: Antibacterial activity methicillin-resistant Staphylococcus aureus ST-2071 assessed as inhibition of bacterial growth incubated for 16 to 24 hrs by broth microdilution assay. To be noted: time 16-24 hrs. It is filed as functional.
Data set [11] concerns Staphylococcus aureus. The data set can be described thus: Antibacterial activity methicillin-resistant Staphylococcus aureus MTCC-96 assessed as inhibition of bacterial growth incubated for 16 to 24 hrs by broth microdilution assay. It is filed as functional. The following applies: time 16-24 hrs.
The test system of data set [12] is Staphylococcus aureus. The data set can be described thus: Antibacterial activity methicillin-resistant Staphylococcus aureus ST-2438 assessed as inhibition of bacterial growth incubated for 16 to 24 hrs by broth microdilution assay. It is filed as functional. The following applies: time 16-24 hrs.
Data set [13] has as its system Staphylococcus aureus. The data set can be described thus: Antibacterial activity methicillin-resistant Staphylococcus aureus P-8029 assessed as inhibition of bacterial growth incubated for 16 to 24 hrs by broth microdilution assay. The format is functional. To be noted: time 16-24 hrs.
Data set [14] relates to Staphylococcus aureus. Description: Antibacterial activity methicillin-resistant Staphylococcus aureus B-10760 assessed as inhibition of bacterial growth incubated for 16 to 24 hrs by broth microdilution assay. The format is functional. To be noted: time 16-24 hrs.
Data set [15] deals with Staphylococcus aureus. Description: Antibacterial activity methicillin-resistant Staphylococcus aureus ST-3151 assessed as inhibition of bacterial growth incubated for 16 to 24 hrs by broth microdilution assay. The following applies: time 16-24 hrs. It is filed as functional.
Data set [16] relates to Staphylococcus aureus. Description: Antibacterial activity methicillin-resistant Staphylococcus aureus ST-10342 assessed as inhibition of bacterial growth incubated for 16 to 24 hrs by broth microdilution assay. It is filed as functional. To be noted: time 16-24 hrs.
Data set [17] deals with Staphylococcus aureus. Description: Antibacterial activity against Staphylococcus aureus assessed as inhibition of bacterial growth. It is filed as functional.
Data set [18] relates to Staphylococcus aureus. The data set can be described thus: Antibacterial activity against methicillin-resistant Staphylococcus aureus 8 assessed as inhibition of bacterial growth. The format is functional.
Data set [19] deals with Staphylococcus aureus. Description: Antibacterial activity against methicillin-resistant Staphylococcus aureus 9 assessed as inhibition of bacterial growth. The format is functional.
Data set [20] deals with Staphylococcus aureus. The data set can be described thus: Antibacterial activity against methicillin-resistant Staphylococcus aureus 4 assessed as inhibition of bacterial growth. It is filed as functional.
In data set [21] the test system is Staphylococcus aureus. Description: Antibacterial activity against methicillin-resistant Staphylococcus aureus 11 assessed as inhibition of bacterial growth. It is filed as functional.
Data set [22] deals with Staphylococcus aureus. The data set can be described thus: Antibacterial activity against methicillin-resistant Staphylococcus aureus 12 assessed as inhibition of bacterial growth. It is filed as functional.
For data set [23], the system named is Staphylococcus aureus. The data set can be described thus: Antibacterial activity against methicillin-resistant Staphylococcus aureus 3 assessed as inhibition of bacterial growth. The format is functional.
Data set [24] deals with Staphylococcus aureus. The data set can be described thus: Antibacterial activity against methicillin-resistant Staphylococcus aureus 6 assessed as inhibition of bacterial growth. It is filed as functional.
In data set [25] the test system is Staphylococcus aureus. The data set can be described thus: Antibacterial activity against methicillin-resistant Staphylococcus aureus 252 assessed as inhibition of bacterial growth. It is filed as functional.
The subject of data set [26] is Staphylococcus aureus. The data set can be described thus: Antibacterial activity against Staphylococcus aureus ATCC 25923 assessed as inhibition of bacterial growth by agar well diffusion method. The format is functional. Background: In agar diffusion tests the substance spreads into inoculated agar from a disc or well.
Data set [27] is described as follows: Cytotoxicity against human HepG2 cells assessed as inhibition of cell growth. It is filed as toxicity, cell-based.
The nature of data set [28]: Cytotoxicity against human HKC-8 cells assessed as inhibition of cell growth. It is filed as toxicity, cell-based.
Data set [29] can be described thus: Cytotoxicity against human MKN-28 cells assessed as inhibition of cell growth. It is filed as toxicity, cell-based.
Data set [30] relates to Staphylococcus aureus. Description: Antibacterial activity against methicillin-resistant Staphylococcus aureus 4N216 infected in mouse assessed as endurance rate at 20 mg/kg, iv relative to control. It is filed as functional.

≈ marks a conversion by molar mass, not a printed value.

In general, IC50 refers to the concentration at which inhibition is half-maximal. What is called MIC is the least concentration at which growth counts as inhibited.

Turning to `O=[N+]([O-])c1ccc(C(c2c[nH]c3ccc(Br)cc23)c2c[nH]c3ccc(Br)cc23)cc1`, the IC50 in [1] was 3900 nM; in data set [3] it was 2700 nM; in data set [4] it was 4500 nM. In the data set with Staphylococcus aureus [2], this compound came in with an MIC of 1 µg/mL (≈ 1.9 µM).
As to `O=C1NC[C@@H](c2c[nH]c3cc(Br)ccc23)N[C@H]1c1c[nH]c2ccccc12`, the half-maximal inhibitory concentration (IC50) in data set [5] is 16 nM.
For `O=C(/C=C/c1c[nH]c2ccccc12)c1cccc(OCc2ccccc2)c1`, the MIC with Staphylococcus aureus [6], in the data set on Staphylococcus aureus [7], with Staphylococcus aureus [8], in the data set on Staphylococcus aureus [9], in the data set on Staphylococcus aureus [10] and in the data set on Staphylococcus aureus [11] was 12.5 µg/mL (≈ 35.4 µM) in each case. The MIC in the data set with Staphylococcus aureus [12], with Staphylococcus aureus [13], in the data set with Staphylococcus aureus [14], in the data set with Staphylococcus aureus [15] and in the data set with Staphylococcus aureus [16] was 12.5 µg/mL (≈ 35.4 µM) throughout.
`O=C(C1=N[C@H](c2c[nH]c3cc(Br)ccc23)CN1)c1c[nH]c2cc(O)ccc12` had an IC50 in data set [5] of 16 nM.
`O=C(c1ccc(F)cc1)C1C(c2ccc(Br)cc2)CNC12C(=O)Nc1ccccc12` (stereo unspecified): the MIC in the data set with Staphylococcus aureus [17] came to 40 µg/mL (≈ 86 µM).
Turning to `Cc1ccc(C(=O)CC2C[C@H](n3c(-c4cc5ccccc5n4S(=O)(=O)c4ccc(C)cc4)c(CC(=O)OCc4ccccc4)c4ccccc43)O[C@@H]2COC(=O)c2ccc(C)cc2)cc1` (stereo partly specified), the minimum inhibitory concentration (MIC) with Staphylococcus aureus [18], in the data set with Staphylococcus aureus [19], with Staphylococcus aureus [20], in the data set on Staphylococcus aureus [21], in the data set with Staphylococcus aureus [22] and in the data set on Staphylococcus aureus [23] was 3 µg/mL (≈ 3.39 µM) in each case. For the same compound, the MIC with Staphylococcus aureus [24] is 3 µg/mL (≈ 3.39 µM).
Consider `O=C(NCC(NC(=O)C(=O)c1c[nH]c2ccc(Br)cc12)c1c[nH]c2ccc(Br)cc12)OC(F)(F)F` (stereo unspecified), for which the MIC in the data set with Staphylococcus aureus [25] is 1 µg/mL (≈ 1.62 µM).
Regarding `COc1ccc(C2C([N+](=O)[O-])C(c3ccccc3)NC23C(=O)N(Cc2ccccc2)c2ccccc23)cc1` (stereo unspecified), the MIC in the data set with Staphylococcus aureus [26] amounted to 5 µg/mL (≈ 9.89 µM).
`O=C(C1=N[C@H](c2c[nH]c3cc(Br)ccc23)CN1)c1c[nH]c2ccccc12`: the IC50 in data set [5] amounted to 16 nM.
`S=C=NCCn1ccc2ccccc21`: the IC50 in data set [27], in data set [28] and in data set [29] was 2 µg/mL (≈ 9.89 µM) each time. The lowest concentration to inhibit growth with Staphylococcus aureus [2] (MIC) was 8 µg/mL (≈ 39.5 µM).
In the case of `O=C(c1ccc(F)cc1)C1C(c2ccc(Cl)cc2)CNC12C(=O)Nc1ccccc12` (stereo unspecified), the MIC in the data set with Staphylococcus aureus [17] stood at 30 µg/mL (≈ 71.3 µM).
With `CC(NC(=O)C(=O)c1c[nH]c2ccc(Br)cc12)c1c[nH]c2ccc(Br)cc12` (stereo unspecified), the MIC in the data set on Staphylococcus aureus [25] came out at 2 µg/mL (≈ 4.09 µM).
Turning to `Cc1ccc(C(=O)OC[C@H]2O[C@H](n3c(-c4cc5ccccc5[nH]4)c(CC(=O)N(CC(=O)O)Cc4ccccc4)c4ccccc43)CC2OC(=O)c2ccc(C)cc2)cc1` (stereo partly specified), the MIC with Staphylococcus aureus [18], in the data set on Staphylococcus aureus [19], in the data set on Staphylococcus aureus [20], with Staphylococcus aureus [21], in the data set on Staphylococcus aureus [22] and in the data set on Staphylococcus aureus [23] was 13 µg/mL (≈ 16.5 µM) throughout. Moreover, the MIC in the data set with Staphylococcus aureus [24] came to 13 µg/mL (≈ 16.5 µM).
Take `Cl.OC(CNCCc1c[nH]c2cc(F)ccc12)Cn1c2ccc(Cl)cc2c2cc(Cl)ccc21` (stereo unspecified): the Activity with Staphylococcus aureus [30] was determined as 75%.
`COc1ccc(C2C([N+](=O)[O-])C(c3ccccc3)NC23C(=O)Nc2ccccc23)cc1` (stereo unspecified): the MIC with Staphylococcus aureus [26] turned out to be 5 µg/mL (≈ 12 µM).
Consider `CCOC(=O)CN(CCc1c(I)n([C@@H]2CC(OC(=O)c3ccc(C)cc3)[C@@H](COC(=O)c3ccc(C)cc3)O2)c2ccccc12)Cc1ccccc1` (stereo partly specified), for which the MIC with Staphylococcus aureus [18], with Staphylococcus aureus [19], in the data set on Staphylococcus aureus [20], in the data set on Staphylococcus aureus [21], in the data set on Staphylococcus aureus [22] and in the data set on Staphylococcus aureus [23] was 6 µg/mL (≈ 7.36 µM) each time. Besides, the MIC with Staphylococcus aureus [24] came to 6 µg/mL (≈ 7.36 µM).
For `CC(C)(C)OC(=O)NCC(NC(=O)c1c[nH]c2ccc(Br)cc12)c1c[nH]c2ccc(Br)cc12` (stereo unspecified), the MIC with Staphylococcus aureus [25] turned out to be 2 µg/mL (≈ 3.47 µM).
For the compound `O=C(O)c1cn(C2CC2)c2cc(N3CCNCC3)c(F)cc2c1=O` [CIPROFLOXACIN], the MIC in the data set on Staphylococcus aureus [26] worked out at 0.3 µg/mL (≈ 0.905 µM); with Staphylococcus aureus [17], 20 µg/mL (≈ 60.4 µM).
`CC[C@H]1OC(=O)[C@H](C)[C@@H](O[C@H]2C[C@@](C)(OC)[C@@H](O)[C@H](C)O2)[C@H](C)[C@@H](O[C@@H]2O[C@H](C)C[C@H](N(C)C)[C@H]2O)[C@](C)(O)C[C@@H](C)C(=O)[C@H](C)[C@@H](O)[C@]1(C)O` [ERYTHROMYCIN]: inhibition of growth against Staphylococcus aureus [2] (MIC) required 32 µg/mL (≈ 43.6 µM).
`O=C(C1=NC(c2c[nH]c3cc(Br)ccc23)CN1)c1c[nH]c2ccccc12` (stereo unspecified) [SPONGOTINE A] showed an IC50 in data set [5] of 16 nM.
Turning to `CC1(C)S[C@@H]2[C@H](NC(=O)[C@H](N)c3ccccc3)C(=O)N2[C@H]1C(=O)OCOC(=O)[C@@H]1N2C(=O)C[C@H]2S(=O)(=O)C1(C)C` [SULTAMICILLIN], inhibition of growth in the data set with Staphylococcus aureus [2] (MIC) required 25 µg/mL (≈ 42 µM).

These data come from ChEMBL document CHEMBL5230084, “Indole-based derivatives as potential antibacterial activity against methicillin-resistance Staphylococcus aureus (MRSA)” (Eur J Med Chem, 2020).
